From patent publication US8334315B2, “Substituted aromatic carboxamide and urea derivatives as vanilloid receptor ligands” (Gruenenthal GmbH, priority 2009, dated 2012) come the findings set out here.

The Ki is the equilibrium dissociation constant of an inhibitor or competing ligand from its target. The IC50 is the concentration needed to halve the response being measured. In general, inhibition refers to how much of the control response was suppressed.

For experiment [1], the target named is T1, hVR1 (Homo sapiens, UniProt Q8NER1).
T1 construct: expressed in transfected cells; host or cells: CHO K1 cells (ECACC), stably transfected
T1 sequence (Q8NER1 whole entry): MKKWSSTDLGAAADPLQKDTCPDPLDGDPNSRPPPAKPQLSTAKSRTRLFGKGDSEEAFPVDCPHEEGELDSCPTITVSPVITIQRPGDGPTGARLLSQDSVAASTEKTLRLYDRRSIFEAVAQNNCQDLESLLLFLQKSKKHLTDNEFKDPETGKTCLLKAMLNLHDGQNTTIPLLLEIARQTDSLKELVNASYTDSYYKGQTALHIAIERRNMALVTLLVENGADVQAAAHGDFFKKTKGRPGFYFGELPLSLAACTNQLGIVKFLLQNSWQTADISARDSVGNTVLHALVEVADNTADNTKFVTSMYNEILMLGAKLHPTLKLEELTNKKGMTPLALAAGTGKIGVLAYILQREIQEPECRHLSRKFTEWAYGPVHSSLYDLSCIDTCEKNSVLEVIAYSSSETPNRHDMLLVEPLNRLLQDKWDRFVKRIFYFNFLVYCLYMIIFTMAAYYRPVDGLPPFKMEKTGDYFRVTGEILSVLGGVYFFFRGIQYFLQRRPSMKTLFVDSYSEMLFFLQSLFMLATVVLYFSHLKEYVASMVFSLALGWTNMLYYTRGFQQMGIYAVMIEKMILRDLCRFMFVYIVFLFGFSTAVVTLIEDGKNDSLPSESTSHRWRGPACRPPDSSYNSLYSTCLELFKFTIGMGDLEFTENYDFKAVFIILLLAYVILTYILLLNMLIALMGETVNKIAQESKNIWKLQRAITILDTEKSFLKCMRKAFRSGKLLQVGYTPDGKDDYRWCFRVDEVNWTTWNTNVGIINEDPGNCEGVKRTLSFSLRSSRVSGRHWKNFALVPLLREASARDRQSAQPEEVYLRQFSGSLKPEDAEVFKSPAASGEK
In words: Functional test on VR1, FLIPR Ca2+ influx in transfected CHO K1 cells, capsaicin. The experiment is classed as cell-based, human being. Further details: key to Ki (human being) [nM] Cap: agonist / partial agonist / no effect: AG=agonist; pAG=partial agonist; NE=no effect. The settings on record: for Ki: capsaicin (Cap), includes values given in brackets after pAG, read-out: Ki (human being) [nM] Cap. The text has this:
In the process, the Ca^2+ influx is quantified in the FLIPR assay with the aid of a Ca^2+-sensitive dye (type Fluo-4, Molecular Probes Europe BV, Leiden, the Netherlands) in a fluorescent imaging plate reader (FLIPR, Molecular Devices, Sunnyvale, USA), as described hereinafter.
II. Functional Tests Carried Out on the Vanilloid Receptor (VR1)
The agonistic or antagonistic effect of the substances to be tested on the vanilloid receptor 1 (VR1) can also be determined using the following assay. In this assay, the influx of Ca^2+ through the channel is quantified with the aid of a Ca^2+-sensitive dye (type Fluo-4, Molecular Probes Europe BV, Leiden, the Netherlands) in a fluorescent imaging plate reader (FLIPR, Molecular Devices, Sunnyvale, USA).
Chinese hamster ovary cells (CHO K1 cells, European Collection of Cell Cultures (ECACC) United Kingdom) are stably transfected with the VR1 gene. For functional testing, these cells are plated out on poly-D-lysine-coated black 96-well plates having a clear base (BD Biosciences, Heidelberg, Germany) at a density of 25,000 cells/well. The cells are incubated overnight at 37° C. and 5% CO2 in a culture medium (Ham's F12 nutrient mixture, 10% by volume of FCS (foetal calf serum), 18 μg/ml of L-proline). The next day the cells are incubated with Fluo-4 (Fluo-4 2 μM, 0.01% by volume of Pluronic F127, Molecular Probes in HBSS (Hank's buffered saline solution), Gibco Invitrogen GmbH, Karlsruhe, Germany) for 30 minutes at 37° C. Subsequently, the plates are washed three times with HBSS buffer and after further incubation for 15 minutes at RT used for Ca^2+ measurement in a FLIPR assay. The Ca^2+-dependent fluorescence is measured before and after the addition of the substances to be tested (λex wavelength=488 nm, λem=540 nm). Quantification is carried out by measuring the highest fluorescence intensity (FC, fluorescence counts) over time.
The FLIPR protocol consists of 2 substance additions. First the compounds to be tested (10 μM) are pipetted onto the cells and the Ca^2+ influx is compared with the control (capsaicin 10 μM) (% activation based on the Ca^2+ signal after the addition of 10 μM of capsaicin). After 5 minutes' incubation, 100 nM of capsaicin are applied and the Ca^2+ influx is also determined.
Desensitising agonists and antagonists led to suppression of the Ca^2+ influx. The % inhibition is calculated compared to the maximum achievable inhibition with 10 μM of capsaicin.
Starting from the percentage displacement caused by different concentrations of the compounds to be tested of general formula I, IC50 inhibitory concentrations which cause a 50-per cent displacement of capsaicin were calculated. Ki values for the test substances were obtained by conversion by means of the Cheng-Prusoff equation (Cheng, Prusoff; Biochem. Pharmacol. 22, 3099-3108, 1973).
The affinity of the compounds according to the invention for the vanilloid receptor 1 (VR1/TRPV1 receptor) was determined as described hereinbefore (pharmacological methods I and II respectively).

The target of experiment [2] is T1, hVR1. In words: Functional test on human VR1, 45° C. stimulus. The experiment is classed as cell-based, human being. The settings on record: for IC50: read-out: IC50 (human being) [nM], 45° C.; for inhibition at 2.5 µM: read-out: IC50 (human being), 45° C.: inhibition (as a percentage).

Regarding `CC(C(=O)NCc1cc(C(F)(F)F)nn1-c1cccc(Cl)c1)c1cccc2c1CC=C2` (centres unmarked) [Example 24, N-((1-(3-chlorophenyl)-3-(trifluoromethyl)-1H-pyrazol-5-yl)methyl)-2-(1H-inden-7-yl)propanamide], the Ki in experiment [1] amounted to 4 nM. In addition, in experiment [2], the IC50 stood at 686 nM.

On to `O=C(NCc1cc(C(F)(F)F)nn1-c1cccc(Cl)c1)Nc1ccc2c(c1)OCO2` [Example 83, 1-(Benzo[d][1,3]dioxol-5-yl)-3-((1-(3-chlorophenyl)-3-(trifluoromethyl)-1H-pyrazol-5-yl)methyl)urea], for which, in experiment [1], the Ki is 50.7 nM. Also, the inhibition at 2.5 µM in experiment [2] came to 16%.

Turning to `O=C(NCc1cc(C(F)(F)F)nn1-c1cccc(Cl)c1)Nc1ccc2scnc2c1` [Example 97, 1-(benzo[d]thiazol-5-yl)-3-((1-(3-chlorophenyl)-3-(trifluoromethyl)-1H-pyrazol-5-yl)methyl)urea], in experiment [1], the Ki worked out at 4.9 nM. In addition, the IC50 in experiment [2] is 396 nM.

In the case of `CC(C)(C)c1cc(CNC(=O)Nc2cccc3ccc(O)cc23)n(-c2cccc(Cl)c2)n1` [Example 101, 1-((3-tert-butyl-1-(3-chlorophenyl)-1H-pyrazol-5-yl)methyl)-3-(7-hydroxynaphthalen-1-yl)urea], in experiment [1], the inhibition constant Ki is 0.5 nM. Further, in experiment [2], the inhibition at 2.5 µM is 46%.

With `O=C(NCc1cc(C(F)(F)F)nn1-c1cccc(Cl)c1)Nc1cccc2ccc(O)cc12` [Example 102, 1-((1-(3-chlorophenyl)-3-(trifluoromethyl)-1H-pyrazol-5-yl)methyl)-3-(7-hydroxynaphthalen-1-yl)urea], the Ki in experiment [1] is 0.2 nM. Besides, the inhibition at 2.5 µM in experiment [2] came to 48%.

For `CC(C)(C)c1cc(CNC(=O)Nc2cccc3cccnc23)n(-c2cccc(Cl)c2)n1` [Example 107, 1-((3-tert-butyl-1-(3-chlorophenyl)-1H-pyrazol-5-yl)methyl)-3-(quinolin-8-yl)urea], the Ki in experiment [1] was 22.4 nM. The half-maximal inhibitory concentration (IC50) in experiment [2] worked out at 375 nM.

On to `O=C(NCc1cc(C(F)(F)F)nn1-c1cccc(Cl)c1)Nc1cccc2cnccc12` [Example 110, 1-((1-(3-chlorophenyl)-3-(trifluoromethyl)-1H-pyrazol-5-yl)methyl)-3-(isoquinolin-5-yl)urea], for which the Ki in experiment [1] was 0.4 nM. Further, the IC50 in experiment [2] worked out at 110 nM.

On to `CC(C(=O)NCc1cc(C(F)(F)F)nn1-c1cccc(Cl)c1)c1ccc2c(c1)CCC(C)(C)O2` (centres unmarked) [Example 189, N-((1-(3-chlorophenyl)-3-(trifluoromethyl)-1H-pyrazol-5-yl)methyl)-2-(2,2-dimethylchroman-6-yl)propanamide], for which the Ki in experiment [1] is 41.2 nM.

As for `CC(C(=O)NCc1cc(C(F)(F)F)nn1-c1cccc(Cl)c1)c1ccc2c(c1)C=CC(C)(C)O2` (centres unmarked) [Example 190, N-((1-(3-chlorophenyl)-3-(trifluoromethyl)-1H-pyrazol-5-yl)methyl)-2-(2,2-dimethyl-2H-chromen-6-yl)propanamide], the Ki in experiment [1] came out at 30.4 nM.

With `CC(C(=O)NCc1cc(C(F)(F)F)nn1-c1cccc(Cl)c1)c1ccc2c(cnn2S(C)(=O)=O)c1` (centres unmarked) [Example 191, N-((1-(3-chlorophenyl)-3-(trifluoromethyl)-1H-pyrazol-5-yl)methyl)-2-(1-(methylsulfonyl)-1H-indazol-5-yl)propanamide], in experiment [1], the “Ki (human being) [nM] Cap: agonist / partial agonist / no effect” value (shortened to “Ki … agonist / partial agonist / no effect”) is recorded as “pAG” and the Ki came out at 0.6 nM.

Consider `Cc1cc2c(NC(=O)NCc3cc(C(F)(F)F)nn3-c3cccc(Cl)c3)cccc2[nH]1` [Example 192, 1-((1-(3-chlorophenyl)-3-(trifluoromethyl)-1H-pyrazol-5-yl)methyl)-3-(2-methyl-1H-indol-4-yl)urea], for which the Ki in experiment [1] worked out at 10.8 nM.

For the compound `CC(C(=O)NCc1cc(C(C)(C)C)nn1-c1cccc(Cl)c1)c1cc(F)cc2[nH]ncc12` (centres unmarked) [Example 193, N-((3-tert-butyl-1-(3-chlorophenyl)-1H-pyrazol-5-yl)methyl)-2-(6-fluoro-1H-indazol-4-yl)propanamide], in experiment [1], the Ki is 1.6 nM.

Regarding `O=C(NCc1cc(C(F)(F)F)nn1-c1cccc(Cl)c1)Nc1cc(F)cc2[nH]ncc12` [Example 194, 1-((1-(3-chlorophenyl)-3-(trifluoromethyl)-1H-pyrazol-5-yl)methyl)-3-(6-fluoro-1H-indazol-4-yl)urea], the inhibition constant (Ki) in experiment [1] worked out at 8.4 nM.

On to `CC(C(=O)NCc1cc(C(F)(F)F)nn1-c1cccc(Cl)c1)c1ccc(F)c2[nH]ncc12` (centres unmarked) [Example 195, N-((1-(3-chlorophenyl)-3-(trifluoromethyl)-1H-pyrazol-5-yl)methyl)-2-(7-fluoro-1H-indazol-4-yl)propanamide], for which the inhibition constant Ki in experiment [1] is 6.8 nM.

For the compound `O=C(NCc1cc(C(F)(F)F)nn1-c1cccc(Cl)c1)Nc1cccc2c(=O)[nH]ccc12` [Example 196, 1-((1-(3-chlorophenyl)-3-(trifluoromethyl)-1H-pyrazol-5-yl)methyl)-3-(1-oxo-1,2-dihydroisoquinolin-5-yl)urea], in experiment [1], the “Ki … agonist / partial agonist / no effect” value is “AG”.

Take `CC(C(=O)NCc1cc(C(F)(F)F)nn1-c1cccc(Cl)c1)c1cccc2c(F)cccc12` (centres unmarked) [Example 197, N-((1-(3-chlorophenyl)-3-(trifluoromethyl)-1H-pyrazol-5-yl)methyl)-2-(5-fluoronaphthalen-1-yl)propanamide]: the Ki in experiment [1] turned out to be 5.8 nM.

`CC(C(=O)NCc1cc(C(F)(F)F)nn1-c1cccc(Cl)c1)c1cccc2c1ccc[n+]2[O-]` (centres unmarked) [Example 198, 5-(1-((1-(3-chlorophenyl)-3-(trifluoromethyl)-1H-pyrazol-5-yl)methylamino)-1-oxopropan-2-yl)quinolin 1-oxide]: in experiment [1], the “Ki … agonist / partial agonist / no effect” value is “AG”.

In the case of `CCCCCn1nc(C(F)(F)F)cc1CNC(=O)C(C)c1cccc2[nH]ncc12` (centres unmarked) [Example 199, 2-(1H-indazol-4-yl)-N-((1-pentyl-3-(trifluoromethyl)-1H-pyrazol-5-yl)methyl)propanamide], in experiment [1], the Ki turned out to be 33.5 nM.

Take `Cc1c(C(F)(F)F)nn(-c2cccc(Cl)c2)c1CNC(=O)C(C)c1ccc2c(c1)OCCO2` (centres unmarked) [Example 200, N-((1-(3-chlorophenyl)-4-methyl-3-(trifluoromethyl)-1H-pyrazol-5-yl)methyl)-2-(2,3-dihydrobenzo[b][1,4]dioxin-6-yl)propanamide]: in experiment [1], the Ki is 17.1 nM.

In the case of `O=C(NCc1cc(C(F)(F)F)nn1-c1cccc(Cl)c1)Nc1c(Cl)ccc2[nH]ncc12` [Example 205, 1-(5-chloro-1H-indazol-4-yl)-3-((1-(3-chlorophenyl)-3-(trifluoromethyl)-1H-pyrazol-5-yl)methyl)urea], in experiment [1], the Ki is 0.8 nM.

For `CC(C(=O)NCc1cc(C(F)(F)F)nn1-c1cccc(Cl)c1)c1cccc2c1CCC2=O` (centres unmarked) [Example 206, N-((1-(3-chlorophenyl)-3-(trifluoromethyl)-1H-pyrazol-5-yl)methyl)-2-(1-oxo-2,3-dihydro-1H-inden-4-yl)propanamide], in experiment [1], the “Ki … agonist / partial agonist / no effect” value was “pAG” and the Ki amounted to 0.4 nM.

For `CC(C(=O)NCc1cc(C(F)(F)F)nn1-c1cccc(Cl)c1)c1cccc2cn[nH]c12` (centres unmarked) [Example 210, N-((1-(3-chlorophenyl)-3-(trifluoromethyl)-1H-pyrazol-5-yl)methyl)-2-(1H-indazol-7-yl)propanamide], in experiment [1], the Ki stood at 8.1 nM.

For `CC(C(=O)NCc1cc(C(F)(F)F)nn1-c1cccc(Cl)c1)c1cccc2cc(F)ccc12` (centres unmarked) [Example 211, N-((1-(3-chlorophenyl)-3-(trifluoromethyl)-1H-pyrazol-5-yl)methyl)-2-(6-fluornaphthalen-1-yl)propanamide], in experiment [2], the IC50 came to 154 nM.
